As usually defined, the IC50 is the midpoint of a concentration-inhibition curve.

SMILES strings stand for the structures.

Sequence of FASN enzyme (P49327 whole entry): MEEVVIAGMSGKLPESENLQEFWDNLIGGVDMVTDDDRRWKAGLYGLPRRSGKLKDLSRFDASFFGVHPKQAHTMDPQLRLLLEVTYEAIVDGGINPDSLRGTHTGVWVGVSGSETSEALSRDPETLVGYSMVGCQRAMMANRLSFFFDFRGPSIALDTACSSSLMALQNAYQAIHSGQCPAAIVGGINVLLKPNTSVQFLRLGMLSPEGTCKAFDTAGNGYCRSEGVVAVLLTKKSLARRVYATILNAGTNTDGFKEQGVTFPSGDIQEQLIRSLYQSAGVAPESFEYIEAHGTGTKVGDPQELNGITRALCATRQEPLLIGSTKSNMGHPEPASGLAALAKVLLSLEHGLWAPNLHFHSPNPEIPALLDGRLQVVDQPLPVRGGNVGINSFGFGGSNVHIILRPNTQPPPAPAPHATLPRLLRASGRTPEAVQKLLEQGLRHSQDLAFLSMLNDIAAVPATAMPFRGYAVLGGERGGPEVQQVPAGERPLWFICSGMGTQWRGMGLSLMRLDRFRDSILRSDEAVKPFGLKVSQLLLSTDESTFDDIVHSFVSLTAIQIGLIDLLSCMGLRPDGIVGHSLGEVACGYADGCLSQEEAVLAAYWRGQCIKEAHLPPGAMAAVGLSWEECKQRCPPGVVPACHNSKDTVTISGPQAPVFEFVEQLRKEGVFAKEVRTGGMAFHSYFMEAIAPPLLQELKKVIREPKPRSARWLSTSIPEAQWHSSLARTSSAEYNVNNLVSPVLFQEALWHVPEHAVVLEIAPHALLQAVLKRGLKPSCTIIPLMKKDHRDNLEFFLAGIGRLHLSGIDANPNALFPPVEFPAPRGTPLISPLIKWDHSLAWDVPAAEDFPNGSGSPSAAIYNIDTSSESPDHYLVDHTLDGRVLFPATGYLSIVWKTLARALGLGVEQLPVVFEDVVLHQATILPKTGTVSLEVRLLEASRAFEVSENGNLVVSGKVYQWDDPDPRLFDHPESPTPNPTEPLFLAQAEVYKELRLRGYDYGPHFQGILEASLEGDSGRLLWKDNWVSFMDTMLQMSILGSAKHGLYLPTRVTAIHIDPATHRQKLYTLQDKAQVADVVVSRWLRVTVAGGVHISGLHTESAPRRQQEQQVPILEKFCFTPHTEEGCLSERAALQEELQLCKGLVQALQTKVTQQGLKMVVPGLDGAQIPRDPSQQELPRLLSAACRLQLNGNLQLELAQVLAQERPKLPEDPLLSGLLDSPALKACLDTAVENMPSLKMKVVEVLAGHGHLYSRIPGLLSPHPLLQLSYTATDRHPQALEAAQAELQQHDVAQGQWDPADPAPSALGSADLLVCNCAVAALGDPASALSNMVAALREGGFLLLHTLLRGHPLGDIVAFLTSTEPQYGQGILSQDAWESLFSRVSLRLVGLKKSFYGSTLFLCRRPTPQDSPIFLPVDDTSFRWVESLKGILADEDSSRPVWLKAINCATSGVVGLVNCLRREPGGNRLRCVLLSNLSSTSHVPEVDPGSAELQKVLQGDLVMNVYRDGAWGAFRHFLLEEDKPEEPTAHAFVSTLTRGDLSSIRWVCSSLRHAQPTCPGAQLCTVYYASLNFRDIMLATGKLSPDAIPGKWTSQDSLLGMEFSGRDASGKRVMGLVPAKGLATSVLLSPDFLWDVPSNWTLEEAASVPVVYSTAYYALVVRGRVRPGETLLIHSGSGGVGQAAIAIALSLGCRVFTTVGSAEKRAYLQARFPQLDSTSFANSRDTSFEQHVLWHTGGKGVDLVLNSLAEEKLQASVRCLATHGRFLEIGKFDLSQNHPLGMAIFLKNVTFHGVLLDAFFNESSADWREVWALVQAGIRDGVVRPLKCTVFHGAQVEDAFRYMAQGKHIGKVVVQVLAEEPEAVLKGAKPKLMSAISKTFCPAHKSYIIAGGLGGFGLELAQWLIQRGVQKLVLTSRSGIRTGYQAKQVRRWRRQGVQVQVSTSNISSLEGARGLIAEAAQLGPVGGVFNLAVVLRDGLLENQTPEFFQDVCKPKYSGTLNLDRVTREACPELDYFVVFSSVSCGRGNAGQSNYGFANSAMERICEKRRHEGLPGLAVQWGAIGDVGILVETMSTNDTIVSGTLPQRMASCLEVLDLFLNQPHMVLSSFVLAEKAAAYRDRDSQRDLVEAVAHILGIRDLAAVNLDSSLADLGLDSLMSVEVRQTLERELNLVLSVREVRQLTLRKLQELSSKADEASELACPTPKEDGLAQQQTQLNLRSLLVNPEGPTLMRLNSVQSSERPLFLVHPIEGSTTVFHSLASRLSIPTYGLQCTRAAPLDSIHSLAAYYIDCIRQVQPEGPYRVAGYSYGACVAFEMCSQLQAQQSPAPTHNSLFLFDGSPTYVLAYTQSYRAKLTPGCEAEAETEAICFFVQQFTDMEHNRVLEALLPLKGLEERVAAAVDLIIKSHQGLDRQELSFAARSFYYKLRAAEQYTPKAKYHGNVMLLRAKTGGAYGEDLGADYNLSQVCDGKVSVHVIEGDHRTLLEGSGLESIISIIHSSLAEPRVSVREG

The first assay addresses FASN enzyme (Homo sapiens, UniProt P49327). As to the kind of experiment: Enzymatic Assay for FASN Inhibitors. In kind it is biochemical.
Conditions: not given
The method in brief:
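40 nM FASN preincubated with compound 60 min at 25° C in HEPES pH 7.3 buffer with 0.04% Triton X-100. Then 20 μM acetyl-CoA, 60 μM malonyl-CoA and 100 μM NADPH added for 90 min, quenched with CPM thiol probe; fluorescence 360/530 nm, IC50 by four-parameter fit.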
The molecule `C[C@H]1CN(C(=O)C2(N)CC2)CCN1C(=O)c1ccc(-c2ccc3c(c2)ncn3C)cc1` [1-[(3S)-3-methyl-4-[4-(1-methyl-1H-1,3-benzodiazol-5-yl)benzoyl]piperazine-1-carbonyl]cyclopropan-1-amine] yielded an IC50 of less than 500 nM.
The same measure, in the same setting: the value for `Cc1n[nH]c2c(-c3ccc(C(=O)N4CCN(C(=O)C5(O)CC5)CC4)c(F)c3)cccc12` [1-{4-[2-fluoro-4-(3-methyl-1H-indazol-7-yl)benzoyl]piperazine-1-carbonyl}cyclopropan-1-ol] was less than 500 nM; that for `Cn1cc2ccc(-c3ccc(C(=O)N4CCN(C(=O)C5(O)CC5)CC4)c(F)c3)cc2n1` was less than 500 nM.
Still for that read-out and setting: the value for `O=C(c1ccc(-c2nc3ccccn3c2Cl)cc1Cl)N1CCN(C(=O)C2(O)CC2)CC1` [1-[4-(2-chloro-4-{3-chloroimidazo[1,2-a]pyridin-2-yl}benzoyl)piperazine-1-carbonyl]cyclopropan-1-ol] was less than 500 nM; that for `O=C(c1ccc(N2CCCc3ccccc3C2)cc1)N1CCN(C(=O)C2(O)CC2)CC1` [1-{4-[4-(2,3,4,5-tetrahydro-1H-2-benzazepin-2-yl)benzoyl]piperazine-1-carbonyl}cyclopropan-1-ol] was less than 500 nM.
Turning to `O=C(c1ccc(-c2cc(Cl)cc3[nH]c(=O)[nH]c23)cc1)N1CCN(C(=O)C2(O)CC2)CC1` [6-chloro-4-{4-[4-(1-hydroxycyclopropanecarbonyl)piperazine-1-carbonyl]phenyl}-2,3-dihydro-1H-1,3-benzodiazol-2-one], the IC50 was less than 500 nM.
Take `Cn1ncc2ccc(-c3ccc(C(=O)N4CCN(C(=O)C5(N)CCC5)CC4)cc3)cc21` [1-{4-[4-(1-methyl-1H-indazol-6-yl)benzoyl]piperazine-1-carbonyl}cyclobutan-1-amine]: the IC50 was less than 500 nM.
Same read-out and setting: as for `O=C(c1ccc(-c2cc(Cl)ccc2Cl)cc1)N1CCN(C(=O)C2(O)CC2)CC1` [1-[(4-{[4-(2,5-dichlorophenyl)phenyl]carbonyl}piperazin-1-yl)carbonyl]cyclopropan-1-ol], the figure is less than 500 nM; as for `N#Cc1ccc2cc(C3CCN(C(=O)N4CCN(C(=O)C5(O)CC5)CC4)CC3)ccc2c1` [6-{1-[4-(1-hydroxycyclopropanecarbonyl)piperazine-1-carbonyl]piperidin-4-yl}naphthalene-2-carbonitrile], less than 500 nM.
The molecule `CC1Cc2ccccc2CN1c1ccc(C(=O)N2CCN(C(=O)C3(O)CC3)CC2)cc1` (stereo not shown) [1-{4-[4-(3-methyl-1,2,3,4-tetrahydroisoquinolin-2-yl)benzoyl]piperazine-1-carbonyl}cyclopropan-1-ol] yielded an IC50 of less than 500 nM.
The molecule `O=C(c1ccc(-c2ccc3c(cnn3C3CC3)c2)cc1)N1CCN(C(=O)C2(O)CC2)CC1` [1-{4-[4-(1-cyclopropyl-1H-indazol-5-yl)benzoyl]piperazine-1-carbonyl}cyclopropan-1-ol] had a 50% inhibitory concentration (IC50) of less than 500 nM.
On the same count and under the same terms, the value for `Cn1ncc2ccc(-c3cc(F)c(C(=O)N4CCN(C(=O)C5(O)CC5)CC4)c(F)c3)cc21` [1-{4-[2,6-difluoro-4-(1-methyl-1H-indazol-6-yl)benzoyl]piperazine-1-carbonyl}cyclopropan-1-ol] was less than 500 nM; that for `CC(C)(C#N)c1cccc(-c2ccc(C(=O)N3CCN(C(=O)C4(O)CC4)CC3)cc2)c1` [2-(3-{4-[4-(1-hydroxycyclopropanecarbonyl)piperazine-1-carbonyl]phenyl}phenyl)-2-methylpropanenitrile] was less than 500 nM.
Same read-out and setting: the value for `O=C(c1ccc(-c2nc3ccc(Cl)cc3o2)c(Cl)c1)N1CCN(C(=O)C2(O)CC2)CC1` [1-{4-[3-chloro-4-(6-chloro-1,3-benzoxazol-2-yl)benzoyl]piperazine-1-carbonyl}cyclopropan-1-ol] was less than 500 nM.
Same read-out and setting: the value for `Cc1nn(C)c2ccc(-c3ccc(C(=O)N4CCN(C(=O)C5(O)CC5)[C@@H](C)C4)cc3)cc12` [1-[(2S)-4-[4-(1,3-dimethyl-1H-indazol-5-yl)benzoyl]-2-methylpiperazine-1-carbonyl]cyclopropan-1-ol] was less than 500 nM.
In turn, `C[C@H]1CN(C(=O)C2(O)CC2)CCN1C(=O)c1ccc(-c2ccc3c(c2)ncn3C)cc1` came in with an IC50 of less than 500 nM.
The same measure, in the same setting: as for `C[C@@H]1CN(C(=O)C2(O)CC2)C[C@H](C)N1C(=O)c1ccc(-c2ccc3c(c2)ncn3C)cc1`, the figure is less than 500 nM.
On the same count and under the same terms, the value for `O=C(c1ccc(-n2cnc3ccccc32)cc1)N1CCN(C(=O)C2(O)CC2)CC1` [1-{4-[4-(1H-1,3-benzodiazol-1-yl)benzoyl]piperazine-1-carbonyl}cyclopropan-1-ol] was less than 500 nM; that for `O=C(c1ccc(-n2ccc3ccccc32)cc1)N1CCN(C(=O)C2(O)CC2)CC1` [1-{4-[4-(1H-indol-1-yl)benzoyl]piperazine-1-carbonyl}cyclopropan-1-ol] was less than 500 nM.
Still for that read-out and setting: as for `O=C(Nc1cccc(-c2ccc(C(=O)N3CCN(C(=O)C4(O)CC4)CC3)cc2)c1)C1CC(F)(F)C1` [3,3-difluoro-N-(3-{4-[4-(1-hydroxycyclopropanecarbonyl)piperazine-1-carbonyl]phenyl}phenyl)cyclobutane-1-carboxamide], the figure is less than 500 nM; as for `O=C(c1ccc(-c2cccc(N3CCCC3=O)c2)cc1)N1CCN(C(=O)C2(O)CC2)CC1` [1-(3-{4-[4-(1-hydroxycyclopropanecarbonyl)piperazine-1-carbonyl]phenyl}phenyl)pyrrolidin-2-one], less than 500 nM; as for `O=C(Nc1cccc(-c2ccc(C(=O)N3CCN(C(=O)C4(O)CC4)CC3)cc2)c1)C1CC1`, less than 500 nM.
As for `O=C(c1ccc(-c2cccc(NS(=O)(=O)C3CCOCC3)c2)cc1)N1CCN(C(=O)C2(O)CC2)CC1` [N-(3-{4-[4-(1-hydroxycyclopropanecarbonyl)piperazine-1-carbonyl]phenyl}phenyl)oxane-4-sulfonamide], the IC50 was less than 500 nM.
`N#CC1(c2cccc(-c3ccc(C(=O)N4CCN(C(=O)C5(O)CC5)CC4)cc3)c2)CC1` registered a half-maximal inhibitory concentration (IC50) of less than 500 nM.
Regarding `Cc1nn(C)c2ccc(-c3ccc(C(=O)N4CCN(C(=O)C5(N)CCC5)CC4)c(F)c3)cc12` [1-{4-[4-(1,3-dimethyl-1H-indazol-5-yl)-2-fluorobenzoyl]piperazine-1-carbonyl}cyclobutan-1-amine], the IC50 is less than 500 nM.
Same read-out and setting: the value for `N#CC1(c2cccc(-c3ccc(C(=O)N4CCN(C(=O)C5(O)CC5)CC4)cc3)c2)CCC1` [1-(3-{4-[4-(1-hydroxycyclopropanecarbonyl)piperazine-1-carbonyl]phenyl}phenyl)cyclobutane-1-carbonitrile] was less than 500 nM; that for `COc1ccc2nc(-c3ccc(C(=O)N4CCN(C(=O)C5(O)CC5)CC4)c(F)c3F)ccc2c1` [1-[(4-{[2,3-difluoro-4-(6-methoxyquinolin-2-yl)phenyl]carbonyl}piperazin-1-yl)carbonyl]cyclopropan-1-ol] was less than 500 nM.
On the same count and under the same terms, the value for `O=C(Nc1noc2cc(-c3ccc(C(=O)N4CCN(C(=O)C5(O)CC5)CC4)cc3)ccc12)C1CC1` [N-(6-{4-[4-(1-hydroxycyclopropanecarbonyl)piperazine-1-carbonyl]phenyl}-1,2-benzoxazol-3-yl)cyclopropanecarboxamide] was less than 500 nM.
The same measure, in the same setting: the value for `COc1cc(Cl)ccc1-c1ccc(C(=O)N2CCN(C(=O)C3(O)CC3)CC2)cc1` [1-[(4-{[4-(4-chloro-2-methoxyphenyl)phenyl]carbonyl}piperazin-1-yl)carbonyl]cyclopropan-1-ol] was less than 500 nM.

The assay is the same for the next values; noted with them: FASN enzymatic assay; Table 2-2.
Turning to `COc1cccc(-c2ccc(C(=O)N3CCN(C(=O)C4(O)CC4)CC3)cc2)c1F` [1-[(4-{[4-(2-fluoro-3-methoxyphenyl)phenyl]carbonyl}piperazin-1-yl)carbonyl]cyclopropan-1-ol], the IC50 lay within 500 to 5000 nM.
Same read-out and setting: the value for `COc1cc(-c2ccc3scnc3c2)ccc1C(=O)N1CCN(C(=O)C2(O)CC2)CC1` [1-[(4-{[4-(1,3-benzothiazol-5-yl)-2-methoxyphenyl]carbonyl}piperazin-1-yl)carbonyl]cyclopropan-1-ol] was 500 to 5000 nM.
Same read-out and setting: as for `O=C(c1ccc(-c2ccc(Cl)cc2C(F)(F)F)cc1)N1CCN(C(=O)C2(O)CC2)CC1` [1-{[4-({4-[4-chloro-2-(trifluoromethyl)phenyl]phenyl}carbonyl)piperazin-1-yl]carbonyl}cyclopropan-1-ol], the figure is 500 to 5000 nM; as for `O=C(c1ccc(-c2cn3ccnc3cn2)cc1)N1CCN(C(=O)C2(O)CC2)CC1` [1-({4-[(4-{imidazo[1,2-a]pyrazin-6-yl}phenyl)carbonyl]piperazin-1-yl}carbonyl)cyclopropan-1-ol], 500 to 5000 nM; as for `O=C(c1ccc(-c2nc3cc(F)c(F)cc3[nH]2)cc1)N1CCN(C(=O)C2(O)CC2)CC1` [1-[(4-{[4-(5,6-difluoro-1H-1,3-benzodiazol-2-yl)phenyl]carbonyl}piperazin-1-yl)carbonyl]cyclopropan-1-ol], 500 to 5000 nM.
Same read-out and setting: as for `O=C(c1ccc(-c2ccc3nncn3n2)cc1)N1CCN(C(=O)C2(O)CC2)CC1`, the figure is 500 to 5000 nM.
Turning to `COc1ccc2nc(-c3ccc(C(=O)N4CCN(C(=O)C5(O)CC5)CC4)cc3)cn2c1` [1-({4-[(4-{6-methoxyimidazo[1,2-a]pyridin-2-yl}phenyl)carbonyl]piperazin-1-yl}carbonyl)cyclopropan-1-ol], the IC50 lay in the range of 500 to 5000 nM.

Staying with this assay, now noted: FASN enzymatic assay; Table 2-3.
Turning to `O=C(c1ccc(-c2ccccc2)cc1)N1CCN(C(=O)C2(O)CCCC2)CC1` [1-({4-[(4-phenylphenyl)carbonyl]piperazin-1-yl}carbonyl)cyclopentan-1-ol], the IC50 is not below 5000 nM.
Same read-out and setting: the value for `Cc1ccc(-c2ccc(C(=O)N3CCN(C(=O)C4(O)CC4)CC3)cc2)cc1` [1-[(4-{[4-(4-methylphenyl)phenyl]carbonyl}piperazin-1-yl)carbonyl]cyclopropan-1-ol] was not below 5000 nM; that for `COc1cnccc1-c1ccc(C(=O)N2CCN(C(=O)C3(O)CC3)CC2)cc1` [1-[(4-{[4-(3-methoxypyridin-4-yl)phenyl]carbonyl}piperazin-1-yl)carbonyl]cyclopropan-1-ol] was not below 5000 nM; that for `O=C(c1ccc(-c2ccc(Cl)cc2F)cc1)N1CCN(C(=O)C2(O)CC2)[C@H](CO)C1` was not below 5000 nM.

The values are drawn from patent US10457655B2, “Compounds and compositions for inhibition of FASN” (FORMA Therapeutics, Inc., priority 2013, dated 2019).
